Source: paper PMC12087874, “Biaryl Phosphates and Phosphonates as Selective Inhibitors of the Transcription Factor STAT4” (Angewandte Chemie (International Ed. in English), 2025)
Values joined by “and” are separate entries in the source; they are usually repeats but may differ in a detail not shown here. Equal entries are not always repeated.

Experiments:
wild‐type STAT4 = target: T1, wild‐type STAT4 (Homo sapiens, UniProt Q14765); test: Isothermal titration calorimetry (ITC), wild-type STAT4; format: binding; settings: for Kd: ITC, 25 °C, one-site binding model, read-out: K d (ITC), wild-type STAT4
T1 construct: 6xHis; made in house
T1 sequence (Q14765 1-748): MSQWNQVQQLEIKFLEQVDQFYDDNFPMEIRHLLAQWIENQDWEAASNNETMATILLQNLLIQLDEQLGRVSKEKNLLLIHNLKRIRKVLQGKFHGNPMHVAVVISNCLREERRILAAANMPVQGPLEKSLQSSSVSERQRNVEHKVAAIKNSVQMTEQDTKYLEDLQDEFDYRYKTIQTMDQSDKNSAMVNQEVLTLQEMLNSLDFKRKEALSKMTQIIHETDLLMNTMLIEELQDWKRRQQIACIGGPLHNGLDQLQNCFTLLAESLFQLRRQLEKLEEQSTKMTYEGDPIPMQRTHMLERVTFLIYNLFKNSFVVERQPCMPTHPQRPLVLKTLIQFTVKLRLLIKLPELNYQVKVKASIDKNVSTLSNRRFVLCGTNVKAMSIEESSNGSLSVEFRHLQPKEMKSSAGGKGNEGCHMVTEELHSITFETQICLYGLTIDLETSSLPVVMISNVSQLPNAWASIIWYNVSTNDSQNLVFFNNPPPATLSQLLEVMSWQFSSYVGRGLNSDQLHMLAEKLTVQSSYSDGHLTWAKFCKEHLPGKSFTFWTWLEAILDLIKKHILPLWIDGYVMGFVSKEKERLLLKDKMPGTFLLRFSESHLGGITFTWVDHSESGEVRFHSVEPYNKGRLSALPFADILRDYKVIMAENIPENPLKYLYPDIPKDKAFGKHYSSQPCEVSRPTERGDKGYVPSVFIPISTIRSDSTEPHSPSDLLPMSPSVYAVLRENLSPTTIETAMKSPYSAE
Experimental: Isothermal Titration Calorimetry
Purification of 6xHis-tagged proteins for ITC experiments was carried out by affinity chromatography on His-Bind resin. The eluting fractions were analyzed by SDS -PAGE.
Proteins were dialyzed against ITC buffer (10 mM Tris pH 8.0, 50 mM NaCl) using dialysi s tubing with a 50 kDa cut-off. ITC experiments were performed using a VP-ITC Micro Calorimeter (MicroCal). 6m was dissolved as a 100 mM stock in DMSO and diluted 1/1000 in ITC buffer (Tris pH 8.0 and 50 mM NaCl), resulting in a final concentration of 100 µM. 8k was dissolved as a 5 mM stock in ITC buffer and diluted 1/25 in ITC buffer with DMSO, resulting in a final concentration of 200 µM 8k. DMSO was added to a final concentration of 2% (v/v). To avoid errors caused by the detection of dilution heat, 0.1 % (v/v) DMSO for 6m or 2% (v/v) DMSO for 8k experiments was added to the buffers containing the proteins and to the reference buffer. Proteins were degassed before the experiments using a ThermoVac sample degassing station. The following conditions were used for ITC experiments: 10 µM STAT4 protein for 6m or 20 µM STAT4 protein for 8k experiments, 100 µM 6m or 200 µM 8k, 28 injections with 10 µL single injection volume, 250 s initial delay, 500 s spacing between injections, 250 µcal/s reference power, 300 rpm stirring at 25 °C for 6m or 220 rpm stirring at 25 °C for 8k. Data analysis was performed using NITPIC[1, 5] and SEDPHAT,[6] applying a low-noise integration approach. Data were fitted using a one-site binding model. Figures were generated using GUSSI.[7] Experiments were carried out in quadruplicate for 6m and triplicate

STAT4 = target: T2, STAT4 (Homo sapiens, UniProt Q14765); test: CETSA of STAT4 in lysates from NK-92 cells; format: binding; design: utilizing cellular lysates from the STAT4‐expressing natural killer cell line NK‐92; endogenous in cells; host or cells: NK-92 (DSMZ); settings: 100 µM; for ΔT agg of STAT4 / T agg of STAT4 (average): CETSA, NK-92 cell lysates; for ΔT agg of STAT4: versus DMSO control; for T agg of STAT4 (average): DMSO control 48.7 ± 0.5 °C, n = 3; for Tagg (STAT4) 3 independent experiments: individual CETSA experiments, in °C (unit assumed)
T2 sequence (Q14765 1-748): T1 sequence (Q14765 1-748)
Experimental: NK-92 cells (DSMZ) were cultured in α-MEM containing 12.5% fetal bovine serum (FBS), 12.5% horse serum, 2 mM L-glutamine, penicillin/streptomycin and 50 U/ml IL -2. […]
NK-92 cell lysates were prepared for CETSA experiments by washing cultured cells once with TBS and resuspending in TBS supplemented with Halt Protease In hibitor Cocktail, EDTA-free (Fisher Scientific) at 3 x 10^6 cells per 100 µl. […]
CETSA experiments were performed essentially using the published protocol. Briefly, NK-92 cell lysates were incubated with test compound or DMSO for 15 min at room temperature (final DMSO concentration 2%). During this time, the treated lysate was divided into 10x 50 µl aliquots in 0.2 ml reaction tubes. Samples were then heated to the designated temperatures in a Veriti Pro Thermocycler (Thermo Fishe r Scientific) for 3 min, followed by 3 min incubation at room temperature, and then placed on ice. The samples were transferred to 1.5 ml tubes before centrifugation at 20,000 g for 20 min at 4 °C, to remove aggregated proteins. The soluble fractions were subsequently analyzed by Western blotting.
The components of cell lysates from treated cells, or heat-treated lysates from CETSA, were separated by SDS-PAGE (10%), transferred to nitrocellulose membrane (Bio-Rad) and detected using monoclonal rabbit primary antibodies (Cell Signaling), α-rabbit-HRP secondary antibody (Dako) and Western Lightning Plus chemiluminescence reagent (Perkin Elmer).
Bands were visualized using an ImageQuant system (GE Healthcare) and quantitated using ImageJ software (NIH). […]
The sitting drop was composed of 0.1 µl protein solution and 0.1 µl reservoir solution. Plates were stored at 19°C in a protein […]
In the first set of experiments, w e tried to crystallize STAT4 as a SUMO -STAT4 fusion protein […]
was cleaved off as described above.
Screening for crystallization conditions for tag-free STAT4 was performed both in the absence or presence of 1 equivalent of 6m or 6h. Since the chosen protein concentration of 3.6 mg/ml appeared to be too low, screening was repeated with a higher concentration of 6.4 mg/ml STAT4 for all conditions (corresponding to 100 µM 6m). Both the SUMO-STAT4 and the tag-free STAT4 preferentially precipitated under conditions containing polyethylene glycol. In one set of experiments, we also screened for conditions in the presence of the high-affinity peptide GY(PO3H2)LPQNID adapted from the IL-12 receptor. However, none of the conditions resulted in the growth of STAT4 crystals (Table S4).

Row | dissociation constant (ITC) relative to IC50 value in FP assays (wild‐type STAT4; Kd (ITC) higher than IC50 (FP), STAT4) [fold] | SMILES | Kd (wild‐type STAT4) [µM] | ΔT agg of STAT4 (STAT4) [°C] | T agg of STAT4 (average) (STAT4) | Tagg (STAT4) 3 independent experiments (STAT4)
1 |  | O=P(O)(O)Oc1ccc(-c2ccc3ccccc3c2)cc1F [Compound 6m] | 1.3 ± 0.3 |  |  | 
2 |  | O=P(O)(O)C(F)(F)c1ccc(-c2ccc3ccccc3c2)cc1F [Compound 8a] |  | 1.1 | 49.8 ± 0.1 °C and 49.8 °C | 49.9 and 49.7 and 49.8
3 | 2 | Cc1cc(-c2ccc(C(F)(F)P(=O)(O)O)c(F)c2)cs1 [Compound 8k] | 7.1 ± 1.1 | 1.3 | 50.0 ± 0.5 °C and 50.0 °C | 50.5 and 49.6 and 49.8
